Literature values in patent US20250101519A1, “USE OF HYPOXIA-INDUCIBLE FACTOR 1 ALPHA AS MARKER IN DEPRESSION RECURRENCE DIAGNOSIS” (NINGBO UNIVERSITY, priority 2022, published 2025).

Key:
[1] = in mice; other references report various values
[2] = in humans

- clearance half-life [1]: 9 h
- metabolic clearance half-life [2]: 96 to 140 h
Compound: CNCCC(Oc1ccc(C(F)(F)F)cc1)c1ccccc1 (centres unmarked) [fluoxetine]
